Assay results published in the supplement of paper PMC11451515.

Columns and labels:
Conditions in all cases: 48 h
SEM cells [1] = experiment: AUC of viability dose-response curve (% viability x log10 dose units); higher = less sensitive
Outline: (§1)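 In 1536-well plates, leukemia cells adapted to each medium (500 or 1000 cells/well) were exposed for 48 h at 37°C to library compounds in DMSO across 11 threefold doses, 47 μM down to 0.79 nM. Viability was read by CellTiter-Glo One luminescence and normalised per plate to DMSO and cell-free wells. A four-parameter log-logistic fit over log10 doses was integrated by trapezoidal rule. This yielded the area under the curve, with over-full-viability curves scaled and quality-control failures dropped.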

NOMO1 [2] = experiment: as above
Outline: as §1

P12-Ichikawa [3] = experiment: as above
Outline: as §1

SEM cells [4] = experiment: cell viability relative to DMSO control; higher = less cytotoxic
Outline: (§2)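 NOMO1 or SEM cells were plated at 500 cells/well and P12-Ichikawa cells at 1000 cells/well in 1536-well plates (5 μl), after each leukemia line had been adapted for at least four passages in each medium. Pin dosing delivered library compounds in DMSO at 11 threefold concentrations, 47 μM to 0.79 nM. CellTiter-Glo One luminescence was read after 48 h at 37°C. Viability is reported as a per-plate percentage of DMSO wells, with cell-free wells as background.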

P12-Ichikawa [5] = experiment: as above
Outline: as §2

NOMO1 [6] = experiment: as above
Outline: as §2

COc1cc2nc(N3CCN(C(=O)C4CCCO4)CC3)nc(N)c2cc1OC (stereo unspecified)
AUC of viability dose-response curve
Conditions | NOMO1 [2] | P12-Ichikawa [3] | SEM cells [1]
HPLM + 10% dialyzed FBS | 473 | 447 | 430
RPMI 5 mM glucose + 10% FBS | 471 | 470 | 460
RPMI 5 mM glucose + 10% dialyzed FBS | 458 | 445 | 418

cell viability [%]
Conditions | P12-Ichikawa [5] | SEM cells [4]
HPLM + 10% dialyzed FBS, 0.000781 µM | 112 | 74.1
HPLM + 10% dialyzed FBS, 0.00234 µM | 123 | 117
HPLM + 10% dialyzed FBS, 0.00702 µM | 123 | 97
HPLM + 10% dialyzed FBS, 0.0211 µM | 127 | 118
HPLM + 10% dialyzed FBS, 0.0632 µM | 130 | 109
HPLM + 10% dialyzed FBS, 0.19 µM | 130 | 117
HPLM + 10% dialyzed FBS, 0.569 µM | 131 | 122
HPLM + 10% dialyzed FBS, 1.71 µM | 124 | 114
HPLM + 10% dialyzed FBS, 5.12 µM | 127 | 116
HPLM + 10% dialyzed FBS, 15.4 µM | 139 | 119
HPLM + 10% dialyzed FBS, 46.1 µM | 136 | 113
RPMI 5 mM glucose + 10% dialyzed FBS, 0.000781 µM | – | 84.6
RPMI 5 mM glucose + 10% dialyzed FBS, 0.00234 µM | – | 125
RPMI 5 mM glucose + 10% dialyzed FBS, 0.00702 µM | – | 110
RPMI 5 mM glucose + 10% dialyzed FBS, 0.0211 µM | – | 124
RPMI 5 mM glucose + 10% dialyzed FBS, 0.0632 µM | – | 134
RPMI 5 mM glucose + 10% dialyzed FBS, 0.19 µM | – | 142
RPMI 5 mM glucose + 10% dialyzed FBS, 0.569 µM | – | 27.4
RPMI 5 mM glucose + 10% dialyzed FBS, 1.71 µM | – | 134
RPMI 5 mM glucose + 10% dialyzed FBS, 5.12 µM | – | 162
RPMI 5 mM glucose + 10% dialyzed FBS, 15.4 µM | – | 148
RPMI 5 mM glucose + 10% dialyzed FBS, 46.1 µM | – | 128

COc1cccc([C@@H](C)NCCCc2ccccc2Cl)c1
AUC of viability dose-response curve
Conditions | NOMO1 [2] | P12-Ichikawa [3] | SEM cells [1]
HPLM + 10% dialyzed FBS | 461 | 440 | 463
RPMI 5 mM glucose + 10% FBS | 437 | 435 | 436
RPMI 5 mM glucose + 10% dialyzed FBS | 429 | 432 | 472

cell viability [%]
Conditions | NOMO1 [6] | P12-Ichikawa [5] | SEM cells [4]
HPLM + 10% dialyzed FBS, 0.000781 µM | 83 | 93.8 | 88.5
HPLM + 10% dialyzed FBS, 0.00234 µM | 104 | 98 | 90.3
HPLM + 10% dialyzed FBS, 0.00702 µM | 83.2 | 89.9 | 95.2
HPLM + 10% dialyzed FBS, 0.0211 µM | 111 | 93.3 | 105
HPLM + 10% dialyzed FBS, 0.0632 µM | 91.5 | 97.5 | 106
HPLM + 10% dialyzed FBS, 0.19 µM | 113 | 99.9 | 95.8
HPLM + 10% dialyzed FBS, 0.569 µM | 95.6 | 94.4 | 81.8
HPLM + 10% dialyzed FBS, 1.71 µM | 110 | 92.7 | 97.6
HPLM + 10% dialyzed FBS, 5.12 µM | 103 | 99.3 | 107
HPLM + 10% dialyzed FBS, 15.4 µM | 95.9 | 99.2 | 96.3
HPLM + 10% dialyzed FBS, 46.1 µM | 110 | 106 | 101
RPMI 5 mM glucose + 10% FBS, 0.000781 µM | 84.4 | 95 | 82.6
RPMI 5 mM glucose + 10% FBS, 0.00234 µM | 86.1 | 94.2 | 100
RPMI 5 mM glucose + 10% FBS, 0.00702 µM | 87.2 | 94.3 | 79.9
RPMI 5 mM glucose + 10% FBS, 0.0211 µM | 97.5 | 85.9 | 100
RPMI 5 mM glucose + 10% FBS, 0.0632 µM | 93.9 | 96.9 | 94
RPMI 5 mM glucose + 10% FBS, 0.19 µM | 88 | 91.9 | 94.9
RPMI 5 mM glucose + 10% FBS, 0.569 µM | 94.7 | 94.1 | 84.2
RPMI 5 mM glucose + 10% FBS, 1.71 µM | 86.1 | 92.8 | 78.7
RPMI 5 mM glucose + 10% FBS, 5.12 µM | 94.8 | 90.6 | 97.4
RPMI 5 mM glucose + 10% FBS, 15.4 µM | 94.6 | 94.9 | 100
RPMI 5 mM glucose + 10% FBS, 46.1 µM | 101 | 103 | 93.5
RPMI 5 mM glucose + 10% dialyzed FBS, 0.000781 µM | 86.2 | 83.1 | 81.2
RPMI 5 mM glucose + 10% dialyzed FBS, 0.00234 µM | 100 | 87.5 | 112
RPMI 5 mM glucose + 10% dialyzed FBS, 0.00702 µM | 92.3 | 85.3 | 92
RPMI 5 mM glucose + 10% dialyzed FBS, 0.0211 µM | 84.4 | 88.1 | 101
RPMI 5 mM glucose + 10% dialyzed FBS, 0.0632 µM | 100 | 91.3 | 94
RPMI 5 mM glucose + 10% dialyzed FBS, 0.19 µM | 101 | 90.7 | 114
RPMI 5 mM glucose + 10% dialyzed FBS, 0.569 µM | 87.9 | 87.4 | 97.2
RPMI 5 mM glucose + 10% dialyzed FBS, 1.71 µM | 90 | 91.4 | 95.1
RPMI 5 mM glucose + 10% dialyzed FBS, 5.12 µM | 111 | 95.2 | 98.6
RPMI 5 mM glucose + 10% dialyzed FBS, 15.4 µM | 106 | 98.1 | 108
RPMI 5 mM glucose + 10% dialyzed FBS, 46.1 µM | 104 | 99.8 | 99.6

Cc1cccc(CN2CCN(C(c3ccccc3)c3ccc(Cl)cc3)CC2)c1 (stereo unspecified)
AUC of viability dose-response curve
Conditions | NOMO1 [2] | P12-Ichikawa [3] | SEM cells [1]
HPLM + 10% dialyzed FBS | 464 | 460 | 436
RPMI 5 mM glucose + 10% FBS | 451 | 429 | 444
RPMI 5 mM glucose + 10% dialyzed FBS | 460 | 456 | 443

SEM cells [4], RPMI 5 mM glucose + 10% dialyzed FBS
Conditions | cell viability [%]
0.000781 µM | 144
0.00234 µM | 121
0.00702 µM | 122
0.0211 µM | 130
0.0632 µM | 45.3
0.19 µM | 104
0.569 µM | 135
1.71 µM | 126
5.12 µM | 82.2
15.4 µM | 121
46.1 µM | 113

CC(O)(C#Cc1ccc2c(c1)N(c1nc(N)ncc1Cl)CC2)c1nccs1 (stereo unspecified)
AUC of viability dose-response curve
Conditions | NOMO1 [2] | P12-Ichikawa [3] | SEM cells [1]
HPLM + 10% dialyzed FBS | 455 | 477 | 469
RPMI 5 mM glucose + 10% FBS | 467 | 468 | 430
RPMI 5 mM glucose + 10% dialyzed FBS | 468 | 464 | 465

cell viability [%]
Conditions | NOMO1 [6] | P12-Ichikawa [5] | SEM cells [4]
HPLM + 10% dialyzed FBS, 0.000781 µM | 98.7 | 111 | 97.3
HPLM + 10% dialyzed FBS, 0.00234 µM | 119 | 123 | 110
HPLM + 10% dialyzed FBS, 0.00702 µM | 132 | 121 | 113
HPLM + 10% dialyzed FBS, 0.0211 µM | 104 | 71 | 100
HPLM + 10% dialyzed FBS, 0.0632 µM | 130 | 116 | 125
HPLM + 10% dialyzed FBS, 0.19 µM | 131 | 123 | 107
HPLM + 10% dialyzed FBS, 0.569 µM | 130 | 126 | 109
HPLM + 10% dialyzed FBS, 1.71 µM | 134 | 121 | 120
HPLM + 10% dialyzed FBS, 5.12 µM | 152 | 117 | 111
HPLM + 10% dialyzed FBS, 15.4 µM | 136 | 116 | 111
HPLM + 10% dialyzed FBS, 46.1 µM | 87.5 | 96.8 | 72.4
RPMI 5 mM glucose + 10% FBS, 0.000781 µM | – | 107 | 88.2
RPMI 5 mM glucose + 10% FBS, 0.00234 µM | – | 118 | 87.3
RPMI 5 mM glucose + 10% FBS, 0.00702 µM | – | 123 | 107
RPMI 5 mM glucose + 10% FBS, 0.0211 µM | – | 79.2 | 62.8
RPMI 5 mM glucose + 10% FBS, 0.0632 µM | – | 127 | 92.9
RPMI 5 mM glucose + 10% FBS, 0.19 µM | – | 115 | 97.7
RPMI 5 mM glucose + 10% FBS, 0.569 µM | – | 121 | 102
RPMI 5 mM glucose + 10% FBS, 1.71 µM | – | 127 | 101
RPMI 5 mM glucose + 10% FBS, 5.12 µM | – | 126 | 102
RPMI 5 mM glucose + 10% FBS, 15.4 µM | – | 115 | 84.5
RPMI 5 mM glucose + 10% FBS, 46.1 µM | – | 74.3 | 43.5
RPMI 5 mM glucose + 10% dialyzed FBS, 0.000781 µM | 124 | – | 117
RPMI 5 mM glucose + 10% dialyzed FBS, 0.00234 µM | 113 | – | 120
RPMI 5 mM glucose + 10% dialyzed FBS, 0.00702 µM | 136 | – | 119
RPMI 5 mM glucose + 10% dialyzed FBS, 0.0211 µM | 131 | – | 82.5
RPMI 5 mM glucose + 10% dialyzed FBS, 0.0632 µM | 135 | – | 107
RPMI 5 mM glucose + 10% dialyzed FBS, 0.19 µM | 135 | – | 103
RPMI 5 mM glucose + 10% dialyzed FBS, 0.569 µM | 135 | – | 117
RPMI 5 mM glucose + 10% dialyzed FBS, 1.71 µM | 127 | – | 123
RPMI 5 mM glucose + 10% dialyzed FBS, 5.12 µM | 138 | – | 114
RPMI 5 mM glucose + 10% dialyzed FBS, 15.4 µM | 147 | – | 109
RPMI 5 mM glucose + 10% dialyzed FBS, 46.1 µM | 110 | – | 59.2
